Measured values reported in patent US20050106305A1, “Beverage compositions comprising monatin and methods of making same” (Cargill, Inc., priority 2003, published 2005).

What was measured:
Format in all cases: in vivo
[1] = Sweetness comparison procedure against sucrose reference solutions, trained sensory evaluators; settings: determined at approximately 8% SEV
Procedure: The S,S stereoisomer of monatin is approximately 50-200 times sweeter than sucrose by weight. The R,R stereoisomer of monatin is approximately 2000-2400 times sweeter than sucrose by weight. The sweetness of the monatin is calculated using experienced sensory evaluators in a sweetness comparison procedure, where a test sweetener solution is matched for sweetness intensity against one of a series of reference solutions. The solutions may be prepared, for example, using a buffer comprising 0.16% (w/v) citric acid and 0.02% (w/v) sodium citrate at ˜pH 3.0.
Specifically, one may assess sweetness of a sweetener relative to sucrose by using a panel of trained sensory evaluators experienced in the sweetness estimation procedure. All samples (in same buffers) are served in duplicate at a temperature of 22° C. ±1° C. Sample solutions may be prepared, for example, using a buffer comprising 0.16% (w/v) citric acid and 0.02% (w/v) sodium citrate at ˜pH 3.0. Test solutions, coded with 3 digit random number codes, are presented individually to panelists, in random order. Sucrose reference standards, ranging from 2.0-10.0% (w/v) sucrose, increasing in steps of 0.5% (w/v) sucrose are also provided. Panelists are asked to estimate sweetness by comparing the sweetness of the test solution to the sucrose standards. This is carried out by taking 3 sips of the test solution, followed by a sip of water, followed by 3 sips of sucrose standard followed by a sip of water, etc. Panelists estimate the sweetness to one decimal place, e.g., 6.8, 8.5. A five minute rest period is imposed between evaluating the test solutions. Panelists are also asked to rinse well and eat a cracker to reduce any potential carry over effects.
Sucrose equivalent value (SEV) (e.g., % sucrose), determined by the panel of trained sensory evaluators, is plotted as a function of monatin concentration to obtain a dose response curve. A polynomial curve fit is applied to the dose response curve and used to calculate the sweetness intensity or potency at a particular point, e.g., 8% SEV, by dividing the sucrose equivalent value (SEV) by the monatin concentration (e.g., % monatin). See e.g., FIG. 15 (R,R/S,S monatin dose response curve); FIG. 14 (R,R monatin dose response curve). The above-mentioned sweetness intensities for S,S and R,R monatin (i.e., approximately 50-200 times sweeter and approximately 2000-2400 times sweeter than sucrose by weight, respectively) were determined at approximately 8% SEV.

[2] = Taste profiling of monatin/carbohydrate blends
Procedure: The quality of equisweet monatin/carbohydrate (50:50) blends then was assessed relative to sucrose by a small panel of trained assessors. This evaluation was carried out “double blind.” The sucrose-sweetened system was identified as the control and all other products randomly coded. Panelists were asked to assess the randomly coded sample relative to the control for the following attributes: Sweetness Profile: Onset, build and decay; Flavor Profile: Acidity, bitterness and other characteristics; Mouthfeel; and Aftertaste. Panelists also were asked to assign a score (1; poor-5; good) for the quality of the sweetener system. A summary of the comments made and scores given is presented as Table 10.

[3] = Time intensity profile in a soft drink system; settings: 80 ppm monatin, 10.0% sucrose, 200 ppm sucralose, pH 3.2 model soft drink; for Intensity of Maximum Sweetness: scale 0-100
Procedure: Solutions of 80 ppm monatin (racemic mix of monatin described in Example 14), 10.0% (w/v) sucrose and 200 ppm sucralose were prepared in the pH 3.2 model soft drink system described in Example 14. The time intensity profile of these solutions then was assessed using the following procedure. Six panelists were included in the study. These panelists were screened for their general sensory acuity and selected for their sensitivity to sweetness intensity and sweetness quality differences. All were experienced in methods of sweetener assessment and had received special training in time intensity evaluations. Training sessions were carried out initially to familiarize the panel with the method of evaluation and scoring the samples over time using a computerized data entry system.
Samples of each solution (13 mL) were coded and presented individually to panelists, in random order. For each panelist, immediately after swallowing, the computer recorded timed intensity readings on the scale of 0-100 each second, up to 60 seconds. Each solution was evaluated in duplicate.

[4] = Taste profiling of lemon/lime carbonates and colas; settings: HFCS 10%, aspartame 500 ppm, sucralose 200 ppm, blends 30.8 ppm/5.0%; for Average Score: score 1, poor-5, good, sucrose 10%
Procedure: Cola and lemon/lime beverages were prepared using the following formulations and sweetened with sucrose, HFCS (55% fructose), aspartame, sucralose, monatin (racemic mix described in Example 14), monatin/sucrose, or monatin/HFCS. One part of syrup was added to 5.5 parts carbonated water and evaluated.
Assessments were carried out ‘double blind’ by a panel of trained tasters. The sucrose-sweetened product was identified as the control and all other products randomly coded. Panelists were asked to assess the randomly coded sample relative to the control for the following attributes:
Panelists also were asked assign a score (1; poor-5; good) for the quality of the sweetener system. A summary of the comments generated together with the average score awarded is presented in Tables 12 and 13 for lemon/lime carbonates and colas, respectively. […] Blends of monatin/carbohydrate rated higher. In the cola, monatin was similar to aspartame.

[5] = Sensory evaluation of sweeteners in coffee and iced tea; settings: 200 mL serving
Procedure: Monatin sweetener formulations, comprising R,R monatin or R,R monatin/erythritol combinations, were assessed relative to other known sweeteners (aspartame and sucralose) in coffee and iced tea. The key sensory parameters assessed included sweetness quality, aftertaste, bitter taste and its aftertaste. Qualitative evaluation was carried out.
Standard coffee was used in which to evaluate sweetener performance (Table 17).
Sweeteners were added to coffee at the following concentrations:
An ice tea formulation was developed to evaluate sweetener performance (Table 18).
Sweeteners were added to tea at the following concentrations:
The evaluation of these coffee and tea drinks was carried out by a panel (n=6) of experienced sensory evaluators who evaluated the coffee products on one tasting occasion and the tea products on a subsequent occasion.

[6] = Sensory evaluation of soft drinks (lemon/lime, orangeade, cola)
Procedure: Beverages (cola, lemon-lime and orange) were formulated and sweetened with aspartame, sucralose or R,R monatin. Qualitative evaluation was carried out.
The term “throw” refers to dilution in water. For example, a throw of “1+4” means 1 part concentrate formulation to 4 parts water. Thus, if a concentrate formulation includes 0.021% wt/vol (i.e., 210 ppm) of R,R monatin, for example, a throw of 1+4 makes a diluted beverage containing 42 ppm (210 ppm/5) R,R monatin.
Final ready-to-drink beverages (after throw) contained sweetener concentrations as follows:
Evaluation of these soft drinks was carried out by a panel (n=6) of assessors who evaluated each set of drinks on separate tasting occasions.

[7] = equisweet monatin/carbohydrate (50:50) blends relative to sucrose control
[8] = cola, sucrose 10% (control), monatin 80 ppm
[9] = lemon/lime carbonate, sucrose 10% (control), monatin 67 ppm
[10] = lemon/lime carbonate, monatin 67 ppm

| Structure (SMILES) | times sweeter than sucrose by weight [1] | Area Under Curve [3] [unit × s] | Rate of Decline [3] [unit/s] | Rate of Onset [3] [unit/s] | Time for Sweetness to Decline to Half Maximum Value [3] [s] | Time to Half Maximum Sweetness [3] [s] | Time to Maximum Sweetness [3] [s] | Intensity of Maximum Sweetness [3] [unit] | Flavor Profile [4, 8] | Aftertaste [4, 9] | Flavor Profile [4, 9] | Average Score ([4]; cola, monatin 80 ppm) | Average Score [4, 10] | other results |
| --- | --- | --- | --- | --- | --- | --- | --- | --- | --- | --- | --- | --- | --- | --- |
| NC(CC(O)(Cc1c[nH]c2ccccc12)C(=O)O)C(=O)O (stereo not drawn) [S,S monatin, 2-hydroxy-2-(indol-3-ylmethyl)-4-aminoglutaric acid] | 50-200 times |  |  |  |  |  |  |  |  |  |  |  |  | times sweeter than sucrose by weight ([1]; listed as S,S): 50-200 times; times sweeter than sucrose by weight ([1]; listed as S,S stereoisomer): 50-200 times |
| NC(CC(O)(Cc1c[nH]c2ccccc12)C(=O)O)C(=O)O (stereo not drawn) [R,R monatin, 2-hydroxy-2-(indol-3-ylmethyl)-4-aminoglutaric acid] | 2000-2400 times |  |  |  |  |  |  |  |  |  |  |  |  | times sweeter than sucrose by weight ([1]; listed as R,R): 2000-2400 times; times sweeter than sucrose by weight ([1]; listed as R,R stereoisomer): 2000-2400 times |
| OC[C@H]1O[C@@](CO)(O[C@H]2O[C@H](CO)[C@@H](O)[C@H](O)[C@H]2O)[C@@H](O)[C@@H]1O [Sucrose, sucrose] |  | 116.9 | 2.3 | 17.9 | 24.9 | 2.3 | 8.0 | 64.1 | Sweet, rounded, warm | Slight bitterness and | Soft, balanced | 4.5 | 4.8 | Aftertaste [2, 7]: Slight lingering; Flavor Profile [2, 7]: Pleasant, citrus; Mouthfeel [2, 7]: Full, syrupy; Sweetness Profile [2, 7]: Fast onset and build; Average Score ([2]; score 1, poor-5, good, equisweet monatin/carbohydrate (50:50) blends, sucrose control): 4.0 |
| OC[C@H]1O[C@H](O[C@]2(CCl)O[C@H](CCl)[C@@H](O)[C@@H]2O)[C@H](O)[C@@H](O)[C@H]1Cl [Sucralose, sucralose] |  | 119.7 | 2.1 | 16.0 | 33.1 | 2.6 | 8.0 | 64.6 | Sweet flavor, slightly | Slight licorice note | Zesty and refreshing | 3.8 | 4.1 | Comments (sensory evaluation) ([5]; Coffee, aspartame 250 ppm, sucralose 82 ppm, R,R monatin 25 ppm + maltodextrin or erythritol (1 g, 0.5%)): Slow sweetness onset allows stronger; Comments (sensory evaluation) ([5]; Iced Tea, aspartame 450 ppm, sucralose 170 ppm, R,R monatin 40 ppm + maltodextrin or erythritol (1 g, 0.5%)): Delay in sweetness onset means first; Comments (sensory evaluation) ([6]; Cola, aspartame 550 ppm, sucralose 220 ppm, R,R monatin 45 ppm): Delay in sweetness onset means first; Comments (sensory evaluation) ([6]; Lemon/lime soft drink, aspartame 500 ppm, sucralose 200 ppm, R,R monatin 42 ppm): Slow sweetness onset allows stronger; Comments (sensory evaluation) ([6]; Orangeade, aspartame 550 ppm, sucralose 220 ppm, R,R monatin 45 ppm): Delay in sweetness onset means first; Aftertaste [4, 8]: Some sweetness; Mouthfeel [4, 8]: Slightly thinner than |
